Source: ChEMBL document CHEMBL5233271, “Discovering the Mechanisms of Wikstroelide E as a Potential HIV-Latency-Reversing Agent by Transcriptome Profiling” (J Nat Prod, 2021)
The source made the active and inactive calls. The rule behind the calls is not given here.

Columns and labels:
[1] = system: Human immunodeficiency virus; experiment: Reactivation of latent HIV in human NH1 cells at 5 uM measured after 24 hrs by luciferase based analysis; type: functional, organism-based
[2] = system: Human immunodeficiency virus; experiment: Reactivation of latent HIV in human NH2 cells at 5 uM measured after 24 hrs by luciferase based analysis; type: functional, organism-based

**Q.** How did the Activity [1] turn out when `CC(=O)O[C@@]12C[C@@H](C)[C@@]3(O)[C@@H](C=C(CO)C[C@]4(O)C(=O)C(C)=C[C@@H]34)[C@@H]1C2(C)C` was run?
**A.** Its Activity is “Active”.

**Q.** What about the Activity [2] of the same compound?
**A.** The Activity was “Active”.
